Series [1] deals with SOGA. It counts as cell-based, mouse. The method, then: (§1) Mouse livers were perfused with a Krebs-Ringer-HEPES buffer containing collagenase (Sigma-Aldrich). Livers were isolated and cells were dispersed by gentle shaking and filtered through sterile nylon gauze. Cells were washed twice with sterile phosphate-buffered saline and purified by centrifugation in 50% isotonic Percoll (Sigma-Aldrich). Cells were resuspended with Krebs-Ringer-HEPES+Ca^2+ buffer to a total volume of 10 ml. Viability was validated via trypan blue exclusion and routinely exceeded 90%. Freshly isolated mouse hepatocytes were plated at 10^5 cells per well in 12-well culture plates coated with rat tail collagen I (BD Biosciences). […] SOGA siRNA, AICAR (500 μM) or […] (10 nM) were introduced to the media 48 hours before the measurement of glucose production. siRNA sequences corresponding to base pairs 333-351 and 1988-2007 on the open reading frame of murine SOGA were selected using a rational design algorithm (Invitrogen). […] Glucose was measured by colorimetric assay (Autokit Glucose CII) (Brooks et al., J. Biol. Chem. 282:35069 (2007)). Valine in the medium was measured by a UPLC (Waters) coupled TSQ-Quantum ultra triple quad mass analyzer (ThermoFinigan) in the Biomarkers Facility Core at UNC. Valine was measured in selected reaction monitoring mode (SRM) using the MS/MS transition of 118→72.

For series [2], the system named is ob/ob mice. Kind of series: Pioglitazone treatment of diabetic ob/ob mice. It counts as in vivo, mouse. The following applies: after 4 days of treatment. On the procedure: Mice were housed in ventilated isolator cage systems in a pathogen-free barrier facility maintained at 23° C., 55% humidity on a 12-h light/12-h dark cycle. Mice received a standard chow diet consisting of 73% carbohydrate, 18% protein, 4% fat and 5% ash (Purina). Young (3-6 month old) female C57B1/6J calorie restricted (CR) and ad libitum fed (AL) mice were maintained as previously described (Combs et al., Diabetes 52:268 (2003)). Adjustments were made to ensure that CR mice received 70% of the ad libitum food intake. Blood samples were collected at 1300 from the tail tip using heparinized capillary tubes (Fisher) and stored at −20° C. Male ob/ob mice (FVB background strain) received a daily dose of pioglitazone at 0.6 mg/kg BW in 0.025% (w/w) carboxymethylcellulose by oral gavage for 4 days. Control mice received carboxymethylcellulose by oral gavage for 4 days. Blood was collected from the tail tip on day 5 and analyzed for glucose, adiponectin and 25 kDa SOGA. Immediately after the collection of blood samples, ob/ob mice were sacrificed by cervical dislocation for tissue collection. Northern blot analysis for SOGA mRNA and 18S RNA was performed using 20 μg of liver RNA. NOD mice were bred and housed as previously described (Wong et al., J. Immunol. 176:1637 (2006)). Where indicated, diabetic NOD mice were injected with 5 units of insulin (NPH Human Insulin, Isophane Suspension; 100 U/ml Novolin; Novo Nordisk) 24 hours prior to blood collection. Adiponectin transgenic mice were produced as previously described (Combs et al., Endocrinology 145:367 (2004)). Glucose was measured by colorimetric assay. Adiponectin and SOGA were measured by SDS-PAGE analysis using 1 μl of plasma. […] Experimental procedures were approved by IACUC.

The test system of series [3] is NOD mice. The experiment in a line: Insulin injection in diabetic NOD mice. The format is in vivo, mouse. The following applies: single injection of insulin 24 hours earlier. On the procedure:
Mice were housed in ventilated isolator cage systems in a pathogen-free barrier facility maintained at 23° C., 55% humidity on a 12-h light/12-h dark cycle. Mice received a standard chow diet consisting of 73% carbohydrate, 18% protein, 4% fat and 5% ash (Purina). Young (3-6 month old) female C57B1/6J calorie restricted (CR) and ad libitum fed (AL) mice were maintained as previously described (Combs et al., Diabetes 52:268 (2003)). Adjustments were made to ensure that CR mice received 70% of the ad libitum food intake. Blood samples were collected at 1300 from the tail tip using heparinized capillary tubes (Fisher) and stored at −20° C. Male ob/ob mice (FVB background strain) received a daily dose of pioglitazone at 0.6 mg/kg BW in 0.025% (w/w) carboxymethylcellulose by oral gavage for 4 days. Control mice received carboxymethylcellulose by oral gavage for 4 days. Blood was collected from the tail tip on day 5 and analyzed for glucose, adiponectin and 25 kDa SOGA. Immediately after the collection of blood samples, ob/ob mice were sacrificed by cervical dislocation for tissue collection. Northern blot analysis for SOGA mRNA and 18S RNA was performed using 20 μg of liver RNA. NOD mice were bred and housed as previously described (Wong et al., J. Immunol. 176:1637 (2006)). […] Glucose was measured by colorimetric assay. Adiponectin and SOGA were measured by SDS-PAGE analysis using 1 μl of plasma. […]

In series [4] the test system is primary murine hepatocytes. The experiment in a line: Hepatocyte glucose production (colorimetric assay). The format is cell-based, mouse. The following applies: adiponectin exposure (adipocyte conditioned media). On the procedure: as §1

Data on four molecules can be found in US9102719B2, “SOGA polynucleotides and polypeptides and uses thereof” (University of North Carolina at Chapel Hill, priority 2009, dated 2015).

For `NC(=O)c1ncn([C@@H]2O[C@H](CO)[C@@H](O)[C@H]2O)c1N` [AICAR, N1-(β-D-ribofuranosyl)-5-aminoimidazole-4-carboxamide], in series [1] (500 μM AICAR, with or without adiponectin, n=4 per group), the “effect on SOGA level (intracellular and extracellular)” value is “decrease in SOGA that was blocked by adiponectin exposure”.
On to `CCc1ccc(CCOc2ccc(CC3SC(=O)NC3=O)cc2)nc1` (centres unmarked) [Pioglitazone, pioglitazone], for which the “concentration of plasma glucose” value in series [2] (untreated ob/ob mice 450±18 mg/dl, p<0.05) amounted to 155 ± 8 mg/dL. In series [2] (daily oral gavage), the “elevation of circulating adiponectin” value was 3 fold. The “increase of SOGA mRNA in the liver” value in series [2] (daily oral gavage, SOGA mRNA/18S RNA) is on record as 40%. In series [2] (daily oral gavage, plasma 25 kDa SOGA), the “elevation of circulating SOGA” value is reported as 3 fold.
Regarding “insulin: NPH Human Insulin, Isophane Suspension (Novolin; Novo Nordisk)”, in series [3], the “induction of SOGA (circulating 25 kDa SOGA)” value was determined as 2 fold.

B1: Adiponectin: hormone provided from adipocyte conditioned media with or without adiponectin (protein, UniProt Q15848 19-244, looked up)
Adiponectin: ETTTQGPGVLLPLPKGACTGWMAGIPGHPGHNGAPGRDGRDGTPGEKGEKGDPGLIGPKGDIGETGVPGAEGPRGFPGIQGRKGEPGEGAYVYRSAFSVGLETYVTIPNMPIRFTKIFYNQQNHYDGSTGKFHCNIPGLYYFAYHITVYMKDVKVSLFKKDKAMLFTYDQYQENNVDQASGSVLLHLEVGDQVWLQVYGEGERNGLYADNDNDSTFTGFLLYHDTN
modifications: in adipocyte conditioned media
Turning to B1, in series [1], the “increase of SOGA in primary hepatocytes” value turned out to be 40%. Besides, the “reduction in glucose production” value in series [4] came out at 50%.
